Measured values taken from PubChem BioAssay AID248 (DTP/NCI, 2004).
Values joined by “and” are separate entries in the source; they are usually repeats but may differ in a detail not shown here. Equal values may be shown once. Inconclusive results and toxic doses are left out. Rule as the data show it: active = T/C of 150% or more; inactive = T/C below 125%.

System: L1210 leukemia ip in BDF1 mice, survival T/C
Assay: NCI In Vivo Anticancer Drug Screen. Data for tumor model L1210 Leukemia (intraperitoneal) in B6D2F1 (BDF1) mice
Settings: endpoint: mean survival time, higher = longer survival
How it was run: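 Mice bearing the transplanted tumor received compound or vehicle. Survival of the treated group was divided by that of the vehicle-treated control group to give the ratio.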

[1] = dose: 100.0 mg/kg/injection, schedule: Q01DX009 (ip), vehicle: saline with Tween-80
[2] = dose: 200.0 mg/kg/injection, schedule: Q01DX009 (ip), vehicle: saline with Tween-80
[3] = dose: 400.0 mg/kg/injection, schedule: Q01DX009 (ip), vehicle: saline with Tween-80
[4] = dose: 100.0 mg/kg/injection, schedule: Q04DX003 (ip), vehicle: Klucel (hydroxypropylcellulose) (HPC)
[5] = dose: 200.0 mg/kg/injection, schedule: Q04DX003 (ip), vehicle: Klucel (hydroxypropylcellulose) (HPC)
[6] = dose: 400.0 mg/kg/injection, schedule: Q04DX003 (ip), vehicle: Klucel (hydroxypropylcellulose) (HPC)
[7] = dose: 100.0 mg/kg/injection, schedule: Q04DX002 (ip), vehicle: Klucel (hydroxypropylcellulose) (HPC)
[8] = dose: 200.0 mg/kg/injection, schedule: Q04DX002 (ip), vehicle: Klucel (hydroxypropylcellulose) (HPC)
[9] = dose: 400.0 mg/kg/injection, schedule: Q04DX002 (ip), vehicle: Klucel (hydroxypropylcellulose) (HPC)
[10] = dose: 100.0 mg/kg/injection, schedule: Q04DX003 (ip), vehicle: saline

Measured: T/C

CC(=O)OC1=CCCCC1c1ccccc1 (stereo not drawn)
inactive: [1] 103 % of control | dose: 100.0 mg/kg/injection, schedule: Q04DX003 (ip), vehicle: saline with Tween-80 98 % of control | [2] 111 % of control | dose: 200.0 mg/kg/injection, schedule: Q04DX003 (ip), vehicle: saline with Tween-80 98 % of control | [3] 103 % of control | dose: 400.0 mg/kg/injection, schedule: Q04DX003 (ip), vehicle: saline with Tween-80 109 % of control

COc1cccc(NC(=O)Nc2ccccc2C(F)(F)F)c1
inactive: dose: 6.25 mg/kg/injection, schedule: Q01DX009 (ip), vehicle: saline with Tween-80 92 % of control | dose: 12.5 mg/kg/injection, schedule: Q01DX009 (ip), vehicle: saline with Tween-80 92 % of control | dose: 25.0 mg/kg/injection, schedule: Q01DX009 (ip), vehicle: saline with Tween-80 90 % of control | dose: 50.0 mg/kg/injection, schedule: Q01DX009 (ip), vehicle: saline with Tween-80 90 % of control | [1] 94 % of control

CC(=O)/C(=C\N(C)C)C(=O)Nc1ccccn1
inactive: dose: 100.0 mg/kg/injection, schedule: Q01DX001 (ip), vehicle: saline with Tween-80 98 % of control | dose: 200.0 mg/kg/injection, schedule: Q01DX001 (ip), vehicle: saline with Tween-80 101 % of control | dose: 400.0 mg/kg/injection, schedule: Q01DX001 (ip), vehicle: saline with Tween-80 93 % of control

Cn1c(=S)sc2ccccc21
inactive: dose: 25.0 mg/kg/injection, schedule: Q04DX003 (ip), vehicle: saline with Tween-80 97 % of control | dose: 50.0 mg/kg/injection, schedule: Q04DX003 (ip), vehicle: saline with Tween-80 97 % of control | [4] 107 % of control

COC(=O)C1=C2c3ccc(OC)cc3CCC2C(=O)C1 (stereo not drawn)
inactive: [4] 97 % of control | [5] 105 % of control | [6] 89 % of control

CN(CC(=O)c1ccc(-c2ccccc2)cc1)C(=O)c1ccccc1
inactive: dose: 75.0 mg/kg/injection, schedule: Q04DX003 (ip), vehicle: Klucel (hydroxypropylcellulose) (HPC) 96 % of control | dose: 150.0 mg/kg/injection, schedule: Q04DX003 (ip), vehicle: Klucel (hydroxypropylcellulose) (HPC) 89 % of control | dose: 300.0 mg/kg/injection, schedule: Q04DX003 (ip), vehicle: Klucel (hydroxypropylcellulose) (HPC) 89 % of control

O=[N+]([O-])/C=C/C=C/c1ccco1
inactive: dose: 6.25 mg/kg/injection, schedule: Q04DX002 (ip), vehicle: saline with Tween-80 97 % of control | dose: 12.5 mg/kg/injection, schedule: Q04DX002 (ip), vehicle: saline with Tween-80 101 % of control | dose: 25.0 mg/kg/injection, schedule: Q04DX002 (ip), vehicle: saline with Tween-80 97 % of control and 90 % of control

N/C(=N\N=C\c1c(F)c(F)c(F)c(F)c1F)N[N+](=O)[O-]
inactive: [1] 102 % of control | [2] 97 % of control | [3] 94 % of control

NC(N)=NN(CCN(N=O)N=C(N)N)N=O
inactive: [7] 96 % of control | [8] 104 % of control | [9] 86 % of control

Cc1ccc([S+](c2ccccc2)c2cc(C)ccc2C)cc1 (stereo not drawn)
inactive: dose: 2.5 mg/kg/injection, schedule: Q01DX001 (ip), vehicle: carboxymethylcellulose (CMC) 103 % of control | dose: 5.0 mg/kg/injection, schedule: Q01DX001 (ip), vehicle: carboxymethylcellulose (CMC) 102 % of control

Cc1ccc(C(=O)CC(=O)Nc2cc([N+](=O)[O-])ccc2OCCOc2ccc(C(C)(C)CC(C)(C)C)cc2)cc1
inactive: dose: 100.0 mg/kg/injection, schedule: Q01DX009 (ip), vehicle: saline sonified 100 % of control | [4] 112 % of control | dose: 200.0 mg/kg/injection, schedule: Q01DX009 (ip), vehicle: saline sonified 97 % of control | [5] 89 % of control | dose: 400.0 mg/kg/injection, schedule: Q01DX009 (ip), vehicle: saline sonified 87 % of control | [6] 94 % of control

Nc1ccc(C(=O)O)cc1
inactive: [4] 96 % of control | [5] 106 % of control | [6] 113 % of control

O=c1c2ccccc2[nH]c2ncccc12
inactive: [7] 96 % of control | [8] 92 % of control

CC(=O)CCCCCCCCCCC1CCC2OC12 (stereo not drawn)
inactive: dose: 100.0 mg/kg/injection, schedule: Q01DX001 (ip), vehicle: other 101 % of control | dose: 100.0 mg/kg/injection, schedule: Q01DX009 (sc), vehicle: other 109 % of control | dose: 100.0 mg/kg/injection, schedule: Q04DX003 (ip), vehicle: other 95 % of control | dose: 200.0 mg/kg/injection, schedule: Q01DX001 (ip), vehicle: other 115 % of control | dose: 200.0 mg/kg/injection, schedule: Q01DX009 (sc), vehicle: other 98 % of control | dose: 200.0 mg/kg/injection, schedule: Q04DX003 (ip), vehicle: other 94 % of control | dose: 400.0 mg/kg/injection, schedule: Q01DX001 (ip), vehicle: other 106 % of control | dose: 400.0 mg/kg/injection, schedule: Q01DX009 (sc), vehicle: other 97 % of control | dose: 400.0 mg/kg/injection, schedule: Q04DX003 (ip), vehicle: other 102 % of control

O=S(O)c1ncnc2nc[nH]c12
inactive: [10] 101 % of control | dose: 200.0 mg/kg/injection, schedule: Q04DX003 (ip), vehicle: saline 106 % of control | dose: 400.0 mg/kg/injection, schedule: Q04DX003 (ip), vehicle: saline 95 % of control

O=C(OC12CCCCC1CCCC2)c1ccc([N+](=O)[O-])cc1 (stereo not drawn)
inactive: [4] 96 % of control | [2] 90 % of control | [5] 101 % of control | [6] 96 % of control

CCN(c1ccc2c(c1)C(=O)c1ccccc1-2)S(=O)(=O)c1ccc(C)cc1
inactive: [4] 96 % of control | [5] 98 % of control | [6] 98 % of control

N#CCCn1c(=O)n(CCC#N)c(=O)n(CCC#N)c1=O
inactive: [7] 104 % of control | [8] 97 % of control | [9] 93 % of control

COc1ccc(-c2c(C)c(C)[nH]c(=O)c2C#N)c(OCc2ccccc2)c1OC
inactive: dose: 100.0 mg/kg/injection, schedule: Q01DX001 (ip), vehicle: saline 101 % of control | dose: 200.0 mg/kg/injection, schedule: Q01DX001 (ip), vehicle: saline 101 % of control | dose: 400.0 mg/kg/injection, schedule: Q01DX001 (ip), vehicle: saline 93 % of control

Cc1nc2ccc(N(C)C)cc2c2c1Cc1c(C)nc3ccc(N(C)C)cc3c1O2
inactive: [1] 95 % of control | [2] 92 % of control | [3] 110 % of control

CCN(CC)CCC(C#N)(CC=C(C)C)c1cccc2ccccc12 (stereo not drawn)
inactive: dose: 12.5 mg/kg/injection, schedule: Q01DX009 (ip), vehicle: Klucel (hydroxypropylcellulose) (HPC) 100 % of control | dose: 25.0 mg/kg/injection, schedule: Q01DX009 (ip), vehicle: Klucel (hydroxypropylcellulose) (HPC) 110 % of control | dose: 50.0 mg/kg/injection, schedule: Q01DX009 (ip), vehicle: Klucel (hydroxypropylcellulose) (HPC) 97 % of control

Cc1ccc(S(=O)(=O)N(CCCc2c(C)nc(N)[nH]c2=O)Cc2ccc(N)cc2)cc1
inactive: [7] 91 % of control | [8] 88 % of control | [9] 112 % of control

Nc1ncnc2nn(C3OC(CO)C(O)C3O)nc12 (stereo not drawn)
inactive: dose: 75.0 mg/kg/injection, schedule: Q01DX001 (ip), vehicle: saline 105 % of control | dose: 150.0 mg/kg/injection, schedule: Q01DX001 (ip), vehicle: saline 105 % of control | dose: 300.0 mg/kg/injection, schedule: Q01DX001 (ip), vehicle: saline 108 % of control

Cc1ccc(S(=O)(=O)/N=S(\Cc2ccccc2)c2ccccc2)cc1 (stereo not drawn)
inactive: dose: 100.0 mg/kg/injection, schedule: Q01DX009 (ip), vehicle: Klucel (hydroxypropylcellulose) (HPC) 92 % of control | [4] 93 % of control | dose: 200.0 mg/kg/injection, schedule: Q01DX009 (ip), vehicle: Klucel (hydroxypropylcellulose) (HPC) 89 % of control | [5] 97 % of control | dose: 400.0 mg/kg/injection, schedule: Q01DX009 (ip), vehicle: Klucel (hydroxypropylcellulose) (HPC) 92 % of control | [6] 98 % of control

C=C(NC(=O)C(=C)NC(=O)c1csc(C2=NC3c4csc(n4)C4NC(=O)c5csc(n5)C(C(C)(O)C(C)O)NC(=O)C5CSC(=N5)/C(=C/C)NC(=O)C(C(C)O)NC(=O)c5csc(n5)C3(CC2)NC(=O)C(C)NC(=O)C(=C)NC(=O)C(C)NC(=O)C(C(C)CC)NC2C=Cc3c(C(C)O)cc(nc3C2O)C(=O)OC4C)n1)C(N)=O (stereo not drawn)
inactive: dose: 100.0 mg/kg/injection, schedule: Q01DX001 (ip), vehicle: carboxymethylcellulose (CMC) 110 % of control | [10] 113 % of control | dose: 178.0 mg/kg/injection, schedule: Q01DX001 (ip), vehicle: saline 117 % of control | dose: 200.0 mg/kg/injection, schedule: Q01DX001 (ip), vehicle: carboxymethylcellulose (CMC) 112 % of control | dose: 400.0 mg/kg/injection, schedule: Q01DX001 (ip), vehicle: carboxymethylcellulose (CMC) 112 % of control
